# Laboratory results published in patent US20160081336A1, “MEDIUM WITH A PLANT NON-METABOLIZABLE SUGAR FOR IMPROVING SEED GERMINATION” (WEYERHAEUSER NR COMPANY, priority 2014, published 2016).
# How the values were obtained:
# embryos = experiment: Lower sucrose concentrations study (15, 25, 35 and 50 g/l; FIG. 4-6); assay type: in vivo
# Source text: Organ lengths were also a factor with relation to sucrose concentrations. It was hypothesized that lower sucrose concentrations would affect root lengths and indeed the lower sucrose treatments produced shorter root lengths as compared to the highest group 50 g/l sucrose (FIG. 4). […] After observing sufficient lid penetration, seed were transferred from boxes to sterile sand.
# developing embryo = experiment: Earlier sucrose level study in manufactured seed (FIG. 2, 3); assay type: in vivo
# Source text: Higher water potential with relation to lower sucrose levels (solute concentration) was previously purported to increase flooding in gametophyte seed cavities. […] Because of the flooding problem, this study could have selected for those treatments that had the most rapid lid penetration, which would allow embryos to escape the flooded seed environment.
# [1] = tested on: embryos dissected from natural loblolly pine seed; experiment: Germination of loblolly pine embryos in manufactured seed, sucrose/isomaltulose gametophyte media (Example 2); assay type: in vivo; conditions: relative to 20 sucrose
# Source text: Normal (germination score): Fully extracted out of seed with no malformation (epicotyl optional for fully extracted). OR partial germinant with epicotyl out of cavity and all organs—No Malformations present. Root length of at least 3.0 mm.
# Partial Normal (germination score): Not fully emerged, partial germinant with no epicotyl and no malformations. Root length of at least 3.0 mm.
# Not normal (germination score): Malformed partial germinants, lacking organs, roots less than 3 mm, any upside down or twisted germinant, or germinated and died as evidenced by lid penetration but no germinant present.
# Manufactured seeds were prepared with KE 64 agar nutritive medium, as shown below in Table 1, with sucrose (50 g/L), agar (18 g/L to 26 g/L), nutrient-loaded charcoal (60 g/L) and Pluronic F68 (10 g/L).
# The germination rate may be measured and the normalcy of the germinants may also be assessed. A “normal germinant” or “normalcy” denotes the presence of all expected parts of a plant at time of evaluation. In the case of gymnosperms, normalcy is characterized by the radicle having a length greater than 3 mm and no visibly discernable malformations compared to the appearance of embryos germinated from natural seed. “Not normal” means tissue on at least one organ is swollen, and the root and cotyledons are dead. […]
# [2] = tested on: alkaline and acid invertases; conditions: cut potato tubers; cited from earlier work
# [3] = Study testing increased arginine in gametophyte medium; conditions: in vivo
# Source text: Aside from the signaling evidence from the literature, the effect of isomaltulose is not thought to be simply from additional osmoticant because higher osmolality medium would drive the water potential gradient further in the direction of the gametophyte, not toward the embryo.
compound,measurement,setting,value
OC[C@H]1O[C@@](CO)(O[C@H]2O[C@H](CO)[C@@H](O)[C@H](O)[C@H]2O)[C@@H](O)[C@@H]1O [sucrose],root length,embryos; FIG. 4,increased root length with relation to rising sucrose levels
same,normalcy,"embryos; after germination in sand, FIG. 6",normalcy increasing with higher sucrose concentrations
same,embryo activity,"embryos; day 5, FIG. 5",Lower concentrations of sucrose gave the highest yield of embryo activity
same,organ lengths,developing embryo; FIG. 2,increased with sucrose at 50 g/l and greater
same,normalcy,developing embryo; FIG. 3,decreased with increasing sucrose concentration
"O=C(CO)[C@@H](O)[C@H](O)[C@H](O)CO[C@H]1O[C@H](CO)[C@@H](O)[C@H](O)[C@H]1O [isomaltulose, 6-O-α-d-glucopyranosyl-D-fructose]",lateral roots,[1],significantly improved lateral root presence
same,isomaltulose concentration at peak acid invertase activity,[2],20 mM
same,isomaltulose concentration at peak alkaline invertase activity,[2],50 mM
N=C(N)NCCC[C@H](N)C(=O)O [arginine],performance with increased arginine,[3],reduced performance at higher levels
